Patent US20140275090A1, “BILE ACID RECYCLING INHIBITORS FOR TREATMENT OF PRIMARY SCLEROSING CHOLANGITIS AND INFLAMMATORY BOWEL DISEASE” (Lumena Pharmaceuticals, Inc., priority 2013, published 2014)

Tested on: serum bile acids
Experiment: Phase 1 ascending multiple oral doses of LUM001 in healthy adults: serum bile acid analysis
Assay type: in vivo, human
Settings: 28 days
Procedure: This Phase 1 study was a randomized, double-blind, placebo-controlled study of ascending multiple oral doses of LUM001 in healthy, adult subjects. This study was conducted at a single center. There were 13 LUM001 dosing panels: 10, 20, 60, 100, and 20 mg every morning (qAM) (2) (i.e., the regimen was tested a second time in the study), 5 mg every evening (qPM), 0.5, 1, 2.5, 5, 2.5 (2), 5 (2), and 0.5 to 5 mg qAM dose titration. Most of the dosing panels included subjects treated with matching placebo. No subject participated in more than 1 dosing panel. Subjects were randomized into the study by dosing panel, and all subjects within a dosing panel received study medication at approximately the same time each day. Safety was reviewed for each panel before subsequent panels were initiated. A total of 167 subjects were treated for 28 days, 147 with LUM001 and 20 with placebo. […]
On Day 1 of the Treatment Period, subjects who qualified for enrollment were randomized in the order in which they were admitted to the research facility. […] The safety and tolerability of LUM001 were evaluated by physical examination, ascertainment of adverse signs and symptoms, and clinical laboratory studies. […]
SBA were analyzed as part of the routine clinical analysis of the serum samples collected at each time point.

CCCCC1(CCCC)CS(=O)(=O)c2ccc(N(C)C)cc2[C@@H](c2ccc(OCc3ccc(C[N+]45CCN(CC4)CC5)cc3)cc2)[C@H]1O [LUM001]
effect on serum bile acids: significant reduction
